In patent US9169254B2, “Spiroimidazolone derivative” (Chugai Seiyaku Kabushiki Kaisha, priority 2009, dated 2015):

target: T1, human PTH1 receptor (Homo sapiens, UniProt Q03431); assay: In vitro cAMP signal activity in HKRK-B7 cells (LLC-PK1 cells overexpressing the human PTH1 receptor); type: cell-based; settings: HKRK-B7 cells; compound at 1×10^−3 M; cAMP produced as percentage of that produced by hPTH(1-34) at 100 nM
T1 sequence (Q03431 27-593): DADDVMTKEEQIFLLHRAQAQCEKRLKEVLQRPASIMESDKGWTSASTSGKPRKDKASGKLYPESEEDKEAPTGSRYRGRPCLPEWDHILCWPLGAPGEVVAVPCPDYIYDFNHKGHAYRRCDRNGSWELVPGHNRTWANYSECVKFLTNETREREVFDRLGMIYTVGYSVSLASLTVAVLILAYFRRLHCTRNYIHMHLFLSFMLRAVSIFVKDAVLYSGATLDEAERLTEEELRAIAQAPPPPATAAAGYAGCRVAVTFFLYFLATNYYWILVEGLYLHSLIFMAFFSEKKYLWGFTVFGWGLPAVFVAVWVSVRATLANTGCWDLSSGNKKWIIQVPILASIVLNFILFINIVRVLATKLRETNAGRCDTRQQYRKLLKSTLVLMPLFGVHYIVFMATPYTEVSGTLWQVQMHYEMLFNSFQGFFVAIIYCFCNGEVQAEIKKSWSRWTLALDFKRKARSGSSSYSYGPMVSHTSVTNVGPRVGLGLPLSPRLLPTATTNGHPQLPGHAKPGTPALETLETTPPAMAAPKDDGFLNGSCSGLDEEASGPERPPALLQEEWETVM

Row | SMILES | cAMP production activity (%)
1 | O=C1NC(c2cccc(C(F)(F)F)c2)=NC12CCN(S(=O)(=O)c1ccc(Cl)s1)CC2 [Compound 66, 8-(5-Chloro-thiophene-2-sulfonyl)-2-(3-trifluoromethyl-phenyl)-1,3,8-triaza-spiro[4.5]dec-1-en-4-one] | 57
2 | Cc1cc(N2C(=O)CNC2=O)ccc1CCS(=O)(=O)N1CCC2(CC1)N=C(C1CCC(/C=C/C(F)F)CC1)NC2=O (stereo not drawn) [Compound 945, 3-[4-(2-{2-[4-((E)-3,3-difluoro-propenyl)-cyclohexyl]-4-oxo-1,3,8-triaza-spiro[4.5]dec-1-ene-8-sulfonyl}-ethyl)-3-methyl-phenyl]-imidazolidine-2,4-dione] | 77
3 | Cc1cc(OC[C@H](O)CO)cc(C)c1CCS(=O)(=O)N1CCC2(CC1)N=C(C1CCCCC1)NC2=O [Compound 279, 2-cyclohexyl-8-{2-[4-((R)-2,3-dihydroxy-propoxy)-2,6-dimethyl-phenyl]-ethanesulfonyl}-1,3,8-triaza-spiro[4.5]dec-1-en-4-one] | 67
4 | Cc1cc(NS(C)(=O)=O)cc(C)c1/C=C/S(=O)(=O)N1CCC2(CC1)N=C(c1cccc(OC(F)(F)F)c1)NC2=O [Compound 229, N-(3,5-dimethyl-4-{(E)-2-[4-oxo-2-(3-trifluoromethoxy-phenyl)-1,3,8-triaza-spiro[4.5]dec-1-ene-8-sulfonyl]-vinyl}-phenyl)-methanesulfonamide] | 68
5 | CCCCCCCCCC1=NC2(CCN(S(=O)(=O)/C=C/c3c(C)cc(C(=O)O)cc3C)CC2)C(=O)N1 [Compound 628, 3,5-dimethyl-4-[(E)-2-(2-nonyl-4-oxo-1,3,8-triaza-spiro[4.5]dec-1-ene-8-sulfonyl)-vinyl]-benzoic acid] | 48
6 | CC(=O)N(CC(F)(F)F)c1ccc(/C=C/S(=O)(=O)N2CCC3(CC2)N=C(c2cccc(OC(F)(F)F)c2)NC3=O)c(C)c1 [Compound 613, N-(3-methyl-4-{(E)-2-[4-oxo-2-(3-trifluoromethoxy-phenyl)-1,3,8-triaza-spiro[4.5]dec-1-ene-8-sulfonyl]-vinyl}-phenyl)-N-(2,2,2-trifluoro-ethyl)-acetamide] | 44
7 | CCCCOC1CCC(C2=NC3(CCN(S(=O)(=O)CCc4ccc(NC(C)=O)cc4C)CC3)C(=O)N2)CC1 (stereo not drawn) [Compound 912, N-(4-{2-[2-(4-butoxy-cyclohexyl)-4-oxo-1,3,8-triaza-spiro[4.5]dec-1-ene-8-sulfonyl]-ethyl}-3-methyl-phenyl)-acetamide] | 98
8 | CC(=O)Nc1ccc(CCS(=O)(=O)N2CCC3(CC2)N=C(C2CCC(C(C)(C)C)CC2)NC3=O)c(C)c1 (stereo not drawn) [Compound 909, N-(4-{2-[2-(4-tert-butyl-cyclohexyl)-4-oxo-1,3,8-triaza-spiro[4.5]dec-1-ene-8-sulfonyl]-ethyl}-3-methyl-phenyl)-acetamide] | 78
9 | NCC(=O)N1CCCC(C2=NC3(CCN(S(=O)(=O)c4cccc(Cl)c4)CC3)C(=O)N2)C1 (stereo not drawn) [Compound 442, 2-[1-(2-Amino-acetyl)-piperidin-3-yl]-8-(3-chloro-benzenesulfonyl)-1,3,8-triaza-spiro[4.5]dec-1-en-4-one] | 2.5
10 | Cc1cc(S(=O)(=O)NCCCO)ccc1/C=C/S(=O)(=O)N1CCC2(CC1)N=C(c1cccc(OC(F)(F)F)c1)NC2=O [Compound 224, N-(3-Hydroxy-propyl)-3-methyl-4-{(E)-2-[4-oxo-2-(3-trifluoromethoxy-phenyl)-1,3,8-triaza-spiro[4.5]dec-1-ene-8-sulfonyl]-vinyl}-benzenesulfonamide] | 54
11 | O=C1NC(CC2CCCCC2)=NC12CCN(S(=O)(=O)c1cccc(Cl)c1)CC2 [Compound 28, 8-(3-chloro-benzenesulfonyl)-2-cyclohexylmethyl-1,3,8-triaza-spiro[4.5]dec-1-en-4-one] | 31
12 | O=C(Cc1cnc[nH]1)N1CCCC(C2=NC3(CCN(S(=O)(=O)CCc4cccc5ccccc45)CC3)C(=O)N2)C1 (stereo not drawn) [Compound 432, 2-[1-(2-3H-imidazol-4-yl-acetyl)-piperidin-3-yl]-8-(2-naphthalen-1-yl-ethanesulfonyl)-1,3,8-triaza-spiro[4.5]dec-1-en-4-one] | 5.1
13 | O=C(N1CCCCC1)N1CCCC(C2=NC3(CCN(S(=O)(=O)c4cccc(Cl)c4)CC3)C(=O)N2)C1 (stereo not drawn) [Compound 456, 8-(3-Chloro-benzenesulfonyl)-2-[1-(piperidine-1-carbonyl)-piperidin-3-yl]-1,3,8-triaza-spiro[4.5]dec-1-en-4-one] | 28
14 | O=C(Nc1ccc(/C=C/S(=O)(=O)N2CCC3(CC2)N=C(C2CCCCC2)NC3=O)c(C(F)(F)F)c1)C1CC1 [Compound 195, cyclopropanecarboxylic acid {4-[(E)-2-(2-cyclohexyl-4-oxo-1,3,8-triaza-spiro[4.5]dec-1-ene-8-sulfonyl)-vinyl]-3-trifluoromethyl-phenyl}-amide] | 36
15 | Cc1cc(C(=O)N(C)C)ccc1CCS(=O)(=O)N1CCC2(CC1)N=C(Cc1ccc(Cl)cc1Cl)NC2=O [Compound 134, 4-{2-[2-(2,4-dichloro-benzyl)-4-oxo-1,3,8-triaza-spiro[4.5]dec-1-ene-8-sulfonyl]-ethyl}-3,N,N-trimethyl-benzamide] | 77
16 | Cc1cc(OC[C@H](O)CO)cc(C)c1/C=C/S(=O)(=O)N1CCC2(CC1)N=C(c1cccc(OCCCC(F)(F)C(F)(F)F)c1)NC2=O [Compound 1103, 8-{(E)-2-[4-((R)-2,3-Dihydroxy-propoxy)-2,6-dimethyl-phenyl]-ethenesulfonyl}-2-[3-(4,4,5,5,5-pentafluoro-pentyloxy)-phenyl]-1,3,8-triaza-spiro[4.5]dec-1-en-4-one] | 5.4
17 | CCCCC1CCC(C2=NC3(CCN(S(=O)(=O)CCc4ccc(C(=O)N(C)C)cc4C)CC3)C(=O)N2)CC1 (stereo not drawn) [Compound 894, 4-{2-[2-(4-butyl-cyclohexyl)-4-oxo-1,3,8-triaza-spiro[4.5]dec-1-ene-8-sulfonyl]-ethyl}-3,N,N-trimethyl-benzamide] | 85
18 | Cc1cc(N2C(=O)CNC2=O)ccc1CCS(=O)(=O)N1CCC2(CC1)N=C([C@H]1CCC[C@@H](C)C1)NC2=O [Compound 950, 3-(3-methyl-4-{2-[2-((1S,3R)-3-methyl-cyclohexyl)-4-oxo-1,3,8-triaza-spiro[4.5]dec-1-ene-8-sulfonyl]-ethyl}-phenyl)-imidazolidine-2,4-dione] | 59
19 | Cc1cc(N(C)C(N)=O)cc(C)c1CCS(=O)(=O)N1CC2(C1)N=C(c1cccc(OC(F)(F)F)c1)NC2=O [Compound 941, 1-(3,5-dimethyl-4-{2-[8-oxo-6-(3-trifluoromethoxy-phenyl)-2,5,7-triaza-spiro[3.4]oct-5-ene-2-sulfonyl]-ethyl}-phenyl)-1-methyl-urea] | 21
20 | Cc1cc2cc(C)c1CCS(=O)(=O)N1CCC3(CC1)N=C(CCCCCCCCCCCCCC(=O)N2C)NC3=O [Compound 1445] | 62
21 | CCSCCCCCCC1=NC2(CCN([S@TB18](=O)(=O)CCc3c(C)cc(N(C)C(N)=O)cc3C)CC2)C(=O)N1 [Compound 1154, 1-(4-{2-[2-(6-ethylsulfanyl-hexyl)-4-oxo-1,3,8-triaza-spiro[4.5]dec-1-ene-8-sulfonyl]-ethyl}-3,5-dimethyl-phenyl)-1-methyl-urea] | 115
